{"source": "patent US12454714B2", "about": "“Monbretin A (MbA) synthesis using a heterologous nucleic acid(s) encoding A MbA pathway enzyme” (The University of British Columbia, priority 2018, dated 2025)", "origin": "cited, not measured here", "key": {"[1]": {"molecular_target": "T1, human pancreatic α-amylase (HPA) (Homo sapiens, UniProt P04746)", "T1 sequence (P04746 16-511)": "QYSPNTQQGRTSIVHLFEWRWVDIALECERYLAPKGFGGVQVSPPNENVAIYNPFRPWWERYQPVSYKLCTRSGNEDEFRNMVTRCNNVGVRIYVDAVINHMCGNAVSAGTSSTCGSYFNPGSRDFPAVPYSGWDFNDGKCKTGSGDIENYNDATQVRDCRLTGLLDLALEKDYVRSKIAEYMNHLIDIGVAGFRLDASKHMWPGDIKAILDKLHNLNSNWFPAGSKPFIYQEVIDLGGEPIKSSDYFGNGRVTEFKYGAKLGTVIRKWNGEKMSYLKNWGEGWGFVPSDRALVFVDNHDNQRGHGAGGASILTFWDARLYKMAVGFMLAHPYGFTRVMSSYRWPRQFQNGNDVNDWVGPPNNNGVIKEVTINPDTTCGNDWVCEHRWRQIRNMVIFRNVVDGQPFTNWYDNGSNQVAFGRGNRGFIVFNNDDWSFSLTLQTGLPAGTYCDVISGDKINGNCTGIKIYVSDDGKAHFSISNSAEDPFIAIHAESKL"}, "gut α-glucosidases": {"test_system": "gut α-glucosidases", "conditions": "selectivity versus HPA"}, "[2]": {"test_system": "“Zucker diabetic fatty” rats"}}, "note": "“And” between values parts separate entries of the source, which are not always exact repeats. Identical values can stand only once. Like-named read-outs stand apart in the source and are kept apart here."}
{"compound": "CC1OC(OC2COC(Oc3c(O)cc(-c4oc5cc(O)cc(O)c5c(=O)c4OC4OC(C)C(O)C(O)C4OC4OC(COC(=O)C=Cc5ccc(O)c(O)c5)C(O)C(O)C4OC4OC(CO)C(O)C(O)C4O)cc3O)C(O)C2O)C(O)C(O)C1O", "note": "[MbA, myricetin 3-O-(glucosyl-6′-O-caffeoyl)-1,2-β-D-glucosyl 1,2-α-L-rhamnoside 4′-O-α-L-rhamnosyl 1,4-β-D-xyloside]", "values": [{"measurement": "HPA inhibition, in words", "setting": "[1]", "value": "potent and selective inhibitors"}, {"measurement": "Ki", "setting": "[1]", "value": "8 nM and 8.1 nM"}, {"measurement": "effect on the gut α-glucosidases", "setting": "gut α-glucosidases", "value": "does not affect"}, {"measurement": "blood-glucose-lowering activity", "setting": "[2]", "value": "effective blood-glucose-lowering"}]}
{"compound": "CC1OC(Oc2c(-c3cc(O)c(O)c(O)c3)oc3cc(O)cc(O)c3c2=O)C(OC2OC(COC(=O)C=Cc3ccc(O)c(O)c3)C(O)C(O)C2OC2OC(CO)C(O)C(O)C2O)C(O)C1O", "note": "[MbA-XR^2, myricetin 3-O-(glucosyl-6′-O-caffeoyl)-1,2-β-D-glucosyl 1,2-α-L-rhamnoside]", "values": [{"measurement": "Ki", "setting": "[1]", "value": 42, "unit": "nM"}]}
{"compound": "CC1OC(Oc2c(-c3cc(O)c(O)c(O)c3)oc3cc(O)cc(O)c3c2=O)C(OC2OC(COC(=O)C=Cc3ccc(O)c(O)c3)C(O)C(O)C2O)C(O)C1O", "note": "[mini-MbA, myricetin 3-O-(6′-O-caffeoyl)-β-D-glucosyl 1,2-α-L-rhamnoside]", "values": [{"measurement": "HPA inhibition, in words", "setting": "[1]", "value": "potent and selective inhibitors"}, {"measurement": "Ki", "setting": "[1]", "value": 93, "unit": "nM"}, {"measurement": "Ki", "setting": "[1]; listed as Mini-MbA", "value": 90, "unit": "nM"}]}
